{
  "source": "patent US10005767B2",
  "about": "“Compositions and methods for inhibition of the JAK pathway” (Rigel Pharmaceuticals, Inc., priority 2009, dated 2018)",
  "data": [
    {"tested_on": "human primary T-cells, IL-2 stimulated proliferation (JAK-1 and JAK-3 dependent; reported as JAK3 activity)", "assay": "Human primary T-cell proliferation stimulated by IL-2 (Example 3)", "type": "cell-based", "conditions": "Homo sapiens, T-cell, tested under conditions described in Example 3 (IL-2 stimulated human primary T-cell proliferation); read-out: ability to inhibit JAK3 activity, IC50 range (Table V)", "in_short": "(§1)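 Peripheral-blood human T-cells pre-activated via TCR/CD28, IL-2-starved overnight, then cultured 72 h at 37 °C with compound in Yssel's medium containing IL-2 (80 U/mL in cell suspension). Proliferation read as viable-cell ATP by CellTiter-Glo luminescence; reduction versus control taken as JAK pathway inhibition.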", "units": {"IC50": "µM"}, "values": [
      {"smiles": "CN1CCN(c2ccc(Nc3ncc(C(F)(F)F)c(Nc4ccc5oc(=O)[nH]c5c4)n3)cn2)CC1", "note": "[II-85, 5-(2-(6-(4-methylpiperazin-1-yl)pyridin-3-ylamino)-5-(trifluoromethyl)pyrimidin-4-ylamino)benzo[d]oxazol-2(3H)-one]", "IC50": "< 0.5"},
      {"smiles": "Cc1cnc(Nc2ccc(N3CCC(NC(=O)OC(C)(C)C)C3)nc2)nc1Nc1ccc2oc(=O)[nH]c2c1", "note": "(stereo not drawn) [II-86, tert-butyl 1-(5-(5-methyl-4-(2-oxo-2,3-dihydrobenzo[d]oxazol-5-ylamino)pyrimidin-2-ylamino)pyridin-2-yl)pyrrolidin-3-ylcarbamate]", "IC50": "< 0.5"},
      {"smiles": "Cc1cnc(Nc2ccc(N3CCC[C@H](N(C)C(=O)OC(C)(C)C)C3)nc2)nc1Nc1ccc2oc(=O)[nH]c2c1", "note": "[II-87, (S)-tert-butyl methyl(1-(5-(5-methyl-4-(2-oxo-2,3-dihydrobenzo[d]oxazol-5-ylamino)pyrimidin-2-ylamino)pyridin-2-yl)piperidin-3-yl)carbamate]", "IC50": "< 0.5"},
      {"smiles": "CN[C@@H]1CCCN(c2ccc(Nc3ncc(C)c(Nc4ccc5oc(=O)[nH]c5c4)n3)cn2)C1", "note": "[II-88, (R)-5-(5-methyl-2-(6-(3-(methylamino)piperidin-1-yl)pyridin-3-ylamino)pyrimidin-4-ylamino)benzo[d]oxazol-2(3H)-one]", "IC50": "< 0.5"},
      {"smiles": "Cc1cnc(Nc2ccc(N3CC[C@@H](N(C)C)C3)nc2)nc1Nc1ccc2oc(=O)[nH]c2c1", "note": "[II-89, (R)-5-(2-(6-(3-(dimethylamino)pyrrolidin-1-yl)pyridin-3-ylamino)-5-methylpyrimidin-4-ylamino)benzo[d]oxazol-2(3H)-one]", "IC50": "< 0.5"},
      {"smiles": "Cc1cnc(Nc2ccc(N3CC[C@H](N(C)C)C3)nc2)nc1Nc1ccc2oc(=O)[nH]c2c1", "note": "[II-90, (S)-5-(2-(6-(3-(dimethylamino)pyrrolidin-1-yl)pyridin-3-ylamino)-5-methylpyrimidin-4-ylamino)benzo[d]oxazol-2(3H)-one]", "IC50": "< 0.5"},
      {"smiles": "Cc1cnc(Nc2ccc(N3CCC[C@@H](N(C)C(=O)OC(C)(C)C)C3)nc2)nc1Nc1ccc2oc(=O)[nH]c2c1", "note": "[II-91, (R)-tert-butyl methyl(1-(5-(5-methyl-4-(2-oxo-2,3-dihydrobenzo[d]oxazol-5-ylamino)pyrimidin-2-ylamino)pyridin-2-yl)piperidin-3-yl)carbamate]", "IC50": "< 0.5"},
      {"smiles": "Cc1cnc(Nc2ccc(N3CCC(NS(C)(=O)=O)C3)nc2)nc1Nc1ccc2oc(=O)[nH]c2c1", "note": "(stereo not drawn) [II-93, N-(1-(5-(5-methyl-4-(2-oxo-2,3-dihydrobenzo[d]oxazol-5-ylamino)pyrimidin-2-ylamino)pyridin-2-yl)pyrrolidin-3-yl)methanesulfonamide]", "IC50": "< 0.5"},
      {"smiles": "Cc1cnc(Nc2ccc(N3CCC(NCC4CC4)C3)nc2)nc1Nc1ccc2oc(=O)[nH]c2c1", "note": "(stereo not drawn) [II-94, 5-(2-(6-(3-(cyclopropylmethylamino)pyrrolidin-1-yl)pyridin-3-ylamino)-5-methylpyrimidin-4-ylamino)benzo[d]oxazol-2(3H)-one]", "IC50": "< 0.5"},
      {"smiles": "Cc1cnc(Nc2ccc(N(C)[C@H]3CCCN(Cc4ccccc4)C3)nc2)nc1Nc1ccc2oc(=O)[nH]c2c1", "note": "[II-95, (S)-5-(2-(6-((1-benzylpiperidin-3-yl)(methyl)amino)pyridin-3-ylamino)-5-methylpyrimidin-4-ylamino)benzo[d]oxazol-2(3H)-one]", "IC50": "< 0.5"},
      {"smiles": "CCNC(=O)NC1CCN(c2ccc(Nc3ncc(C)c(Nc4ccc5oc(=O)[nH]c5c4)n3)cn2)C1", "note": "(stereo not drawn) [II-96, 1-ethyl-3-(1-(5-(5-methyl-4-(2-oxo-2,3-dihydrobenzo[d]oxazol-5-ylamino)pyrimidin-2-ylamino)pyridin-2-yl)pyrrolidin-3-yl)urea]", "IC50": "< 0.5"},
      {"smiles": "Cc1cnc(Nc2ccc(N3CCC(NC(=O)NC(C)(C)C)C3)nc2)nc1Nc1ccc2oc(=O)[nH]c2c1", "note": "(stereo not drawn) [II-97, 1-tert-butyl-3-(1-(5-(5-methyl-4-(2-oxo-2,3-dihydrobenzo[d]oxazol-5-ylamino)pyrimidin-2-ylamino)pyridin-2-yl)pyrrolidin-3-yl)urea]", "IC50": "< 0.5"},
      {"smiles": "Cc1cnc(Nc2ccc(N3CCC(NC(=O)NCc4ccccc4)C3)nc2)nc1Nc1ccc2oc(=O)[nH]c2c1", "note": "(stereo not drawn) [II-98, 1-benzyl-3-(1-(5-(5-methyl-4-(2-oxo-2,3-dihydrobenzo[d]oxazol-5-ylamino)pyrimidin-2-ylamino)pyridin-2-yl)pyrrolidin-3-yl)urea]", "IC50": "< 0.5"},
      {"smiles": "Cc1cnc(Nc2ccc(N[C@H]3CCCN(Cc4ccccc4)C3)nc2)nc1Nc1ccc2oc(=O)[nH]c2c1", "note": "[II-99, (S)-5-(2-(6-(1-benzylpiperidin-3-ylamino)pyridin-3-ylamino)-5-methylpyrimidin-4-ylamino)benzo[d]oxazol-2(3H)-one]", "IC50": "< 0.5"},
      {"smiles": "Cc1cnc(Nc2ccc(N3CCC(NC(=O)C4CC4)C3)nc2)nc1Nc1ccc2oc(=O)[nH]c2c1", "note": "(stereo not drawn) [II-101, N-(1-(5-(5-methyl-4-(2-oxo-2,3-dihydrobenzo[d]oxazol-5-ylamino)pyrimidin-2-ylamino)pyridin-2-yl)pyrrolidin-3-yl)cyclopropanecarboxamide]", "IC50": "< 0.5"},
      {"smiles": "Cc1cnc(Nc2ccc(N(C)[C@H]3CCCNC3)nc2)nc1Nc1ccc2oc(=O)[nH]c2c1", "note": "[II-103, (S)-5-(5-methyl-2-(6-(methyl(piperidin-3-yl)amino)pyridin-3-ylamino)pyrimidin-4-ylamino)benzo[d]oxazol-2(3H)-one]", "IC50": "< 0.5"},
      {"smiles": "Cc1cnc(Nc2ccc(N[C@H]3CCCNC3)nc2)nc1Nc1ccc2oc(=O)[nH]c2c1", "note": "[II-104, (S)-5-(5-methyl-2-(6-(piperidin-3-ylamino)pyridin-3-ylamino)pyrimidin-4-ylamino)benzo[d]oxazol-2(3H)-one]", "IC50": "< 0.5"},
      {"smiles": "Cc1cnc(Nc2ccc(N(C)[C@@H]3CCCN(Cc4ccccc4)C3)nc2)nc1Nc1ccc2oc(=O)[nH]c2c1", "note": "[II-106, (R)-5-(2-(6-((1-benzylpiperidin-3-yl)(methyl)amino)pyridin-3-ylamino)-5-methylpyrimidin-4-ylamino)benzo[d]oxazol-2(3H)-one]", "IC50": "< 0.5"},
      {"smiles": "Cc1cnc(Nc2ccc(N[C@@H]3CCCNC3)nc2)nc1Nc1ccc2oc(=O)[nH]c2c1", "note": "[II-107, (R)-5-(5-methyl-2-(6-(piperidin-3-ylamino)pyridin-3-ylamino)pyrimidin-4-ylamino)benzo[d]oxazol-2(3H)-one]", "IC50": "< 0.5"},
      {"smiles": "Cc1cnc(Nc2ccc(N(C)[C@@H]3CCCNC3)nc2)nc1Nc1ccc2oc(=O)[nH]c2c1", "note": "[II-108, (R)-5-(5-methyl-2-(6-(methyl(piperidin-3-yl)amino)pyridin-3-ylamino)pyrimidin-4-ylamino)benzo[d]oxazol-2(3H)-one]", "IC50": "< 0.5"},
      {"smiles": "Cc1cnc(Nc2cnc(N3C[C@@H]4C[C@H]3CN4C)c(C(F)(F)F)c2)nc1Nc1ccc2oc(=O)[nH]c2c1", "note": "[II-109, N4-(benzo[d]oxazolin-2(3H)-one-5-yl)-5-methyl-N2-[2-((1S,4S)-5-methyl-2,5-diazabicyclo[2.2.1]heptan-2-yl)-3-trifluoromethylpyridine-5-yl]-2,4-pyrimidinediamine]", "IC50": "< 0.5"},
      {"smiles": "CCN1CCN(c2ncc(Nc3ncc(C)c(Nc4ccc5oc(=O)[nH]c5c4)n3)cc2C(F)(F)F)CC1", "note": "[II-110, N4-(benzo[d]oxazolin-2(3H)-one-5-yl)-N2-[2-(4-ethylpiperazin-1-yl)-3-trifluoromethylpyridine-5-yl]-5-methyl-2,4-pyrimidinediamine]", "IC50": "< 0.5"},
      {"smiles": "Cc1cnc(Nc2cnc(N3CCN(C)CC3)c(F)c2)nc1Nc1ccc2oc(=O)[nH]c2c1", "note": "[II-111, N4-(benzo[d]oxazolin-2(3H)-one-5-yl)-N2-[3-fluoro-2-(4-methylpiperazin-1-yl)pyridine-5-yl]-5-methyl-2,4-pyrimidinediamine]", "IC50": "< 0.5"},
      {"smiles": "CCN1CCN(c2ncc(Nc3ncc(C)c(Nc4ccc5oc(=O)[nH]c5c4)n3)cc2F)CC1", "note": "[II-114, N4-(benzo[d]oxazolin-2(3H)-one-5-yl)-N2-[2-(4-ethylpiperazin-1-yl)-3-fluoropyridine-5-yl]-5-methyl-2,4-pyrimidinediamine]", "IC50": "< 0.5"},
      {"smiles": "Cc1cnc(Nc2cnc(N3C[C@@H]4C[C@H]3CN4C)c(C#N)c2)nc1Nc1ccc2oc(=O)[nH]c2c1", "note": "[II-115, N4-(benzo[d]oxazolin-2(3H)-one-5-yl)-N2-[3-cyano-2-((1S,4S)-5-methyl-2,5-diazabicyclo[2.2.1]heptan-2-yl)pyridine-5-yl]-5-methyl-2,4-pyrimidinediamine]", "IC50": "< 0.5"},
      {"smiles": "Cc1cnc(Nc2cnc(N3CCN(C)CC3)c(Cl)c2)nc1Nc1ccc2oc(=O)[nH]c2c1", "note": "[II-116, N2-[3-chloro-2-(4-methylpiperazino)pyridin-5-yl]-5-methyl-N4-(2-oxo-2,3-dihydro-1,3-benzoxazol-5-yl)-2,4-pyrimidinediamine]", "IC50": "< 0.5"}
    ]},
    {"tested_on": "human primary T-cells, IL-2 stimulated proliferation (JAK-1 and JAK-3 dependent; reported as JAK3 activity)", "assay": "Human primary T-cell proliferation stimulated by IL-2 (Example 3)", "type": "cell-based", "conditions": "tested under conditions described in Example 3 (IL-2 stimulated human primary T-cell proliferation); read-out: ability to inhibit JAK3 activity, IC50 range (Table V)", "in_short": "as §1", "units": {"IC50": "µM"}, "values": [
      {"smiles": "Cc1cnc(Nc2ccc(N(C)[C@H]3CCCN(Cc4ccccc4)C3)nc2)nc1Nc1ccc2oc(=O)[nH]c2c1", "note": "[II-100, (S)-5-(2-(6-((1-benzylpiperidin-3-yl)(methyl)amino)pyridin-3-ylamino)-5-methylpyrimidin-4-ylamino)benzo[d]oxazol-2(3H)-one]", "IC50": "< 0.5"},
      {"smiles": "Cc1cnc(Nc2ccc(N3CCC(NC(=O)C(C)(C)C)C3)nc2)nc1Nc1ccc2oc(=O)[nH]c2c1", "note": "(stereo not drawn) [II-102, N-(1-(5-(5-methyl-4-(2-oxo-2,3-dihydrobenzo[c]oxazol-5-ylamino)pyrimidin-2-ylamino)pyridin-2-yl)pyrrolidin-3-yl)pivalamide]", "IC50": "< 0.5"},
      {"smiles": "Cc1cnc(Nc2cnc(N3CCN4CCC[C@H]4C3)c(F)c2)nc1Nc1ccc2oc(=O)[nH]c2c1", "note": "[II-112, N4-(benzo[d]oxazolin-2(3H)-one-5-yl)-N2-{2-[(8S)-1,4-diazabicyclo[4.3.0]nonane-1-yl]-3-fluoropyridine-5-yl}-5-methyl-2,4-pyrimidinediamine]", "IC50": "< 0.5"},
      {"smiles": "Cc1cnc(Nc2cnc(N3CCN4CCC[C@@H]4C3)c(F)c2)nc1Nc1ccc2oc(=O)[nH]c2c1", "note": "[II-113, N4-(benzo[d]oxazolin-2(3H)-one-5-yl)-N2-{2-[(8R)-1,4-diazabicyclo[4.3.0]nonane-1-yl]-3-fluoropyridine-5-yl}-5-methyl-2,4-pyrimidinediamine]", "IC50": "< 0.5"}
    ]}
  ]
}
